# Key:
# [1] = system: MDA-MB-231 breast cancer cells; experiment: Cell viability with doxorubicin (CellTiter-Glo); type: cell-based; details: co-treated with increasing concentrations of doxorubicin, 72 hours
# A549 cells (lung cancer) = experiment: Cell viability with doxorubicin (CellTiter-Glo); type: cell-based; details: co-treated with increasing concentrations of doxorubicin, 72 hours
# Protocol: A549 cells (lung cancer) were cultured for 1 day before performing experiments. […] XLFit was used for curve fitting.
# [2] = system: induced pluripotent stem cell-derived cardiomyocytes; experiment: Acute toxicity on electrophysiology (MEA beat period, field potential duration); type: cell-based; details: lower drug concentration, at least 20 minutes
# Protocol: Samples were either mock-treated with 0.1% DMSO, or treated with increasing concentrations of the indicated drug for at least 20 minutes. Cardiomyocytes were treated with the hERG potassium channel blocker E4031 as a control. Following treatment, the beat period and field potential duration (FPD) were measured in each sample using the MEA.
# [3] = system: human induced pluripotent stem cell-derived cardiomyocytes; experiment: Electrophysiological activity with doxorubicin (active electrodes, MEA); type: cell-based; details: for decrease in the number of active electrodes: 24 hours
# Protocol: Samples were either mock-treated with 0.1% DMSO, treated with 1 μM doxorubicin, or co-treated with 1 μM doxorubicin and various concentrations of vitexin (e.g., 11.6 μM, 37 μM, or 116 μM). Following treatment, the percentage of active electrodes in each sample was measured for 72 hours. Percentage of active electrodes was quantified and graphed in a time course (FIG. 28A). The average number of active electrodes per well was quantified and graphed at 30 hours after the treatment (FIG. 28B, n=6, standard deviation is shown as error bars).
# [4] = system: cardiomyocytes derived from human induced pluripotent stem cells; experiment: Doxorubicin-induced apoptosis (TUNEL), 48 hours; type: cell-based; details: 1 μM doxorubicin, VIT 115 μM, Dex 160 μM, AMB 0.76 μM, NAC 50 μM, KAE 17 μM, MES 10 μM
# Protocol: Following treatment, the samples were incubated with a TUNEL dye to indicate apoptosis-positive cells, and a second dye to identify cell nuclei.
# [5] = system: induced pluripotent stem cell-derived cardiomyocytes; experiment: Long term toxicity on electrophysiology (active electrodes, MEA); type: cell-based; details: various concentrations, at least 5 days
# Protocol: Samples were either mock-treated with 0.1% DMSO, or treated with various concentrations of the indicated drug. Following treatment, the percentage of active electrodes in each sample was measured for at least 5 days. Percentage of active electrodes was quantified and graphed in a time course.
# patient = experiment: Patient treatment examples (echocardiogram / electrocardiogram); type: in vivo, human
# Protocol: A patient, with a history of heart disease, is diagnosed with breast cancer. Due to an increased risk for heart failure, the patient is unable to receive the standard treatment regimen of doxorubicin, which is known to induce cardiotoxicity. Instead, the caregiver administers a co-formulation of doxorubicin (10 mg) and vitexin (100 mg). An echocardiogram is performed and blood flow rate is measured to determine if the therapy has a cardiotoxic effect in the patient.
# A patient is diagnosed with liver cancer. […] The patient presents with a 20 ms QT prolongation. […] The patient is able to continue receiving treatment over several weeks after which a tissue biopsy is performed to confirm the liver cancer has been eradicated.
# (§1) A patient is diagnosed with stage II lung cancer, and presents with bradycardia. Due to an increased risk for heart failure, the patient is unable to receive the standard treatment regimen of doxorubicin, which is known to affect cardiac contraction and induce bradycardia. Instead, the caregiver administers a co-formulation of doxorubicin (10 mg) and myricetin (100 mg). An electrocardiogram is used to monitor the patient's heart rate. […] The lung cancer is down-staged to stage 1, and the cancer is successfully removed with surgery.
# as §1, with “myricetin (100 mg) 24 hours before administration” for “a co-formulation”, “(10” for “(10 mg) and myricetin (100”
# [6] = system: human induced pluripotent stem cell-derived cardiomyocytes; experiment: Long-term mitochondrial health (TMRM), 7 days; type: cell-based; details: 1 μM doxorubicin alone or with dexrazoxane or vitexin
# Protocol: Following treatment, the samples were incubated with a tetramethylrhodamine methyl ester (TMRM) dye to indicate mitochondrial health. […] Representative images are presented for each sample, wherein loss of TMRM signal represents mitochondrial toxicity.
compound,measurement,setting,value
O=c1cc(-c2ccc(O)cc2)oc2c([C@@H]3O[C@H](CO)[C@@H](O)[C@H](O)[C@H]3O)c(O)cc(O)c12 [vitexin],percentage of cell death vs doxorubicin in the absence of a protective agent,[1],no significant difference
same,percentage of cell death vs doxorubicin in the absence of a protective agent,A549 cells (lung cancer),no significant difference
same,"beat period or field potential duration, as compared to control samples",[2],no appreciable difference
same,decrease in the number of active electrodes,[3]; 1 μM doxorubicin and 11.6 μM vitexin,~50%
same,decrease in the number of active electrodes,[3]; 1 μM doxorubicin and 37 μM vitexin,~25%
same,decrease in the number of active electrodes,[3]; 1 μM doxorubicin and 116 μM vitexin,~0%
same,average number of active electrodes,"[3]; 1 μM doxorubicin and 116 μM vitexin, 30 hours",about 10 active electrodes
same,decrease in apoptosis vs doxorubicin alone,[4],at least 60%
same,number of active electrodes relative to the mock-treated sample (in words),[5],no observable decrease
same,QT prolongation (in words),patient; doxorubicin (5 mg/mL) given with the protective agent,no signs of QT prolongation
same,cardiac dysfunction in the patient,"patient; protective agent 100 mg co-formulated with, or 24 hours before, doxorubicin 10 mg",no indication of cardiac dysfunction
same,mitochondrial toxicity / protection (TMRM-positive cells),[6],improved long term mitochondrial protection
